# Literature values in patent US11666634B2, “Methods and compositions for management of gastrointestinal disorders” (THE BOARD OF REGENTS OF THE UNIVERSITY OF TEXAS SYSTEM, priority 2019, dated 2023).
structure (smiles),measurement,setting,value
"CC[C@H](C)[C@H](NC(=O)[C@@H]1CCCN1C(=O)CNC(=O)[C@H](Cc1ccccc1)NC(=O)[C@H](CC(N)=O)NC(=O)[C@H](CC(N)=O)NC(=O)[C@H](CO)NC(=O)[C@H](CO)NC(=O)[C@H](Cc1c[nH]cn1)NC(=O)[C@@H](NC(=O)[C@H](CC(C)C)NC(=O)[C@H](Cc1ccccc1)NC(=O)[C@H](CC(N)=O)NC(=O)[C@H](C)NC(=O)[C@H](CC(C)C)NC(=O)[C@H](CCCNC(=N)N)NC(=O)[C@H](CCC(N)=O)NC(=O)[C@@H](NC(=O)[C@H](C)NC(=O)[C@@H]1CSSC[C@H](NC(=O)[C@@H](N)CCCCN)C(=O)N[C@@H](CC(N)=O)C(=O)N[C@@H]([C@@H](C)O)C(=O)N[C@@H](C)C(=O)N[C@@H]([C@@H](C)O)C(=O)N1)[C@@H](C)O)C(C)C)C(=O)N[C@@H](CC(C)C)C(=O)N1CCC[C@H]1C(=O)N1CCC[C@H]1C(=O)N[C@H](C(=O)N[C@@H](CC(N)=O)C(=O)N[C@H](C(=O)NCC(=O)N[C@@H](CO)C(=O)N[C@@H](CC(N)=O)C(=O)N[C@H](C(=O)N[C@@H](Cc1ccc(O)cc1)C(N)=O)[C@@H](C)O)C(C)C)[C@@H](C)O [Pramlintide, pramlintide]",gastric emptying half time,"gastric emptying of a liquid, delayed from a half time of 30 minutes without pramlintide",110 min
same,rate of gastric emptying,result in words,significantly decreased
